Experiments:
[1] = system: melanocytes (HEMn-LP, HEMn-DP); assay: Intracellular melanin amount of melanocytes in melanocyte single culture system; type: cell-based, human; settings: melanocytes (lightly and darkly); proguanil 3, 10 or 30 μM; 7 days; versus DMSO; FIGS. 15A, 15B
Description: Normal human neonatal foreskin-derived epidermal melanocytes (Human Epidermal Melanocytes, neonatal, lightly pigmented donor (HEMn-LP) and Human Epidermal Melanocytes, neonatal, darkly pigmented donor (HEMn-DP); melanocytes (lightly) and melanocytes (darkly)), a growth medium for epidermal melanocytes (Medium254) and a growth additive (HMGS) for the medium were purchased from Thermo Fisher Scientific. Melanocytes were cultured at 37° C. in 5 vol % CO2 atmospheric conditions. Melanocytes (lightly and darkly) were seeded in 6-well plates at a cell density of 2×10^5 cells/well (2 mL/well). […] The following day, proguanil was added at a final concentration of 3, 10 or 30 μM and culture was performed at 37° C. in 5 vol % CO2 atmospheric conditions for 7 days. As a control, the same amount of DMSO was added. Note that medium replacement was carried out every 2 to 3 days. After completion of culture, the cell culture plates were washed with PBS and the cells were collected by use of a cell scraper in 1.5 mL micro tubes. To individual tubes, 2M NaOH (150 μL) was added and treatment was performed at 100° C. for 60 minutes to lyse the cells. Each of the lysates was centrifuged at a 21,640 g for 10 minutes at room temperature and the supernatant was recovered. The absorbance of the supernatant recovered was measured at a wavelength of 405 nm and the amount of melanin per well was calculated.

[2] = system: human skin tissue; assay: HE staining of skin tissue cultured with proguanil (tissue damage); type: cell-based; settings: proguanil 180 μM; 5 days; FIG. 13 lower stage
Description: The human skin tissue, from which subcutaneous fat was previously trimmed, was cut into small pieces having a size of about 1 cm×1 cm by knife. The small pieces were cultured by using a 6-well plate at 37° C. under a 5 vol % CO2 atmospheric conditions. In the culture, Advanced DMEM medium containing a 10% (v/v) Fetal Bovine Serum (FBS) (Thermo Fisher Scientific, respectively) was used. […] More specifically, the skin tissue was embedded in paraffin and the resultant paraffine block was sliced to prepare paraffin sections of 5 μm in thickness. A Fontana ammonia silver solution (manufactured by MUTO PURE CHEMICALS Co., Ltd.) was allowed to react at room temperature for two hours to visually distinguish melanin granules. Thereafter, nuclear staining was performed using Kernechtrot solution (manufactured by MUTO PURE CHEMICALS Co., Ltd.). […] At the same time, HE staining was carried out.

[3] = system: Pmel17; assay: Melanin (melanosome) decomposition in epidermal keratinocytes that incorporated MNT-1 melanosome fraction; type: cell-based, human; settings: keratinocytes with incorporated melanosome, proguanil 10 or 30 μM, 2 days, FIG. 17
Description: Normal human neonatal foreskin-derived epidermal keratinocytes (Human Epidermal Keratinocytes, neonatal (HEKn) lightly; keratinocytes) were purchased from Thermo Fisher Scientific. Melanoma cell strain MNT-1 cells were given by Dr. […] (University La Sapienza, Rome, Italy). The keratinocytes were cultured in a grow medium (Epilife) epidermal keratinocytes (Thermo Fisher Scientific) supplemented with a growth additive (Humedia-KG) (manufactured by Kurabo Industries Ltd.) at 37° C. in 5 vol % CO2 atmospheric conditions. As a grow medium MNT-1 cells, RPMI1640 medium (Thermo Fisher Scientific) containing AIM-V medium and Fetal Bovine Serum (FES) each in an amount of 10% (v/v) was used and culture was performed at 37° C. in 5 vol % CO2 atmospheric conditions. A melanosome fraction was isolated and prepared from MNT-1 cells by a predetermined method (Murase et al. (2013), J Invest Dermatol, 133: 2416-2424). […] The resultant supernatant was subjected to quantitative determination of protein by BCA (bicinchoninic acid) method using Pierce BCA Protein Assay Kit (Thermo Fisher Scientific) and Bovine Serum Albumin (BSA) as a standard substance. […] Expression of β-actin as the internal standard was evaluated by using a monoclonal antibody specific for β-actin (Sigma-Aldrich, 1:5000). […]

[H]/N=C(\N/C(=N/[H])Nc1ccc(Cl)cc1)NC(C)C [proguanil, 1-(p-chlorophenyl)-5-isopropyl biguanide]
intracellular amount of melanin [1]: does not increase intracellular amount of melanin | tissue damage (HE staining) [2]: no damage was induced in the tissue | color density of the cell sediment [3]: confirmed to be increased in a concentration-dependent manner | intensity of the band of Pmel17 ([3]; versus DMSO): is increased in a concentration-dependent manner
